Experimental data as given in patent US20240050526A1, “CATH2 DERIVATIVES FOR STIMULATING INNATE IMMUNE MEMORY” (priority 2020, published 2024).
Square brackets hold non-standard residues; d marks the D form. Ends that are not written are not given here.

Legend:
[1] = test system: Salmonella enteritidis 706; assay: Antibacterial activity (intracellular killing) of DCATH-2 primed dTHP-1 cells; format: cell-based, Salmonella enterica subsp. enterica serovar enteritidis; details: 24 h DCATH-2 training; colonies after 24 h
Method: Antibacterial activity was determined according to Tang et al.. dTHP-1 cells were seeded in 6 well plates and primed with DCATH-2 or medium as described. Log-phase culture of Salmonella enterica subsp. enterica serovar enteritidis 706 (Se706) was added to each well at a MOI of 1. After 2 h incubation at 37° C., cells were washed twice with warm DPBS and further incubated for 1 h incubation at 37° C. with IMDM/FCS medium containing 300 μg/ml colistin. After incubation, cells were washed 3 times in DPBS and the lysed with 1% triton X-100. Well contents were serially diluted in tryptone soy broth (Oxoid), plated on tryptone soy agar and counted after 24 h at 37° C.

[2] = test system: dTHP-1 cells; assay: Metabolomics of DCATH-2 trained dTHP-1 cells; format: cell-based, human
Method: dTHP-1 cells were seeded (1×10^6 cells/well) in 6 wells plates and primed during 24 h with 5 μM DCATH-2 as described using medium as control. Cell supernatants, cell lysates and medium controls were collected before and after 24 h priming in the absence and presence of 10 nM rapamycin, after washing followed by 3 days rest and after subsequent 24 h LPS (E. coli O111:B4) stimulation. For sample collections, cells were washed once in ice-cold PBS, lysed with by adding 1 ml cold methanol/acetonitrile/water (2:2:1) lysis buffer, scraped and transferred in to vials. Cell supernatants and medium control samples (10 μl) were directly mixed with 200 μl lysis buffer. Samples were shaken for 10 min at 4° C. and centrifuged for 15 min at 18,000×g and 4° C. Supernatants were flash frozen in liquid nitrogen and stored at −80° C. for analysis. Liquid chromatography-mass spectrometry analysis was performed using an Exactive mass spectrometer (Thermo Scientific), coupled to a Dionex Ultimate 3000 auto sampler and pump (Thermo Scientific). The mass spectrometry operated in polarity-switching mode with spray voltages of 4.5 and −3.5 kV. Metabolites were separated using a Sequant ZIC-pHILIC column (2.1×150 mm, […], guard column 2.1×20 mm, […]; Merck) using a linear gradient of acetonitrile and eluent A 20 mM (NH4)2CO3, 0.1% NH40H in ULC/MS grade water (Biosolve BV, Valkenswaard, The Netherlands) and a flow rate of 150 μl/min. Metabolites were identified and peak intensities quantified using LCquan software (Thermo Scientific) on the basis of exact mass within 5 ppm and further validated by concordance with retention times of commercially available standards. Peak intensities were normalized on cell counts of parallel wells before and after LPS stimulation.

[3] = test system: dTHP-1 cells; assay: RNA sequencing of DCATH-2 trained dTHP-1 cells; format: cell-based, human
Method: dTHP-1 cells (1×10^6/well) were primed for 24 h with DCATH-2 in 6 well plates containing 1 ml medium, using culture medium as control. After priming, cells were washed 3 times and left to rest for 3 days in culture medium. Cells were stimulated for 6 h with 50 ng/ml E. coli O111:B4 LPS or fresh medium. Supernatants were stored for cytokine analysis. Cells were harvested by rinsing once with ice-cold DPBS and lysing cells in 100 μl RLT buffer (Qiagen) containing 1% 2-mercaptoethanol. After scraping, per condition the contents of two wells were transferred into vials, flash frozen in liquid nitrogen and stored at −80° C. for analysis. Total RNA was extracted in RLT buffer (RNeasy kit, Qiagen) supplemented with 2-mercaptoethanol and purified using a Qiagen QiaSymphony SP system. RNA libraries were prepared using the Truseq stranded total RNA (ribo-zero) library prep kit (Illumina) according the manufacturer's recommendations. RNA-sequencing was done with a NextSeq 500 system 1×75 bp high-output kit. Single-end RNASeq reads were processed using the UMCU RNASeq pipeline (v2.3.0) with default settings. Read quality was assessed with FastQC (0.11.4) followed by splice-aware alignment against the human reference genome (GRCh37) with STAR (2.4.2a). RNA expression quantification was performed with htseq-count (0.6.0) in reverse-stranded mode. Differential gene expression analysis was carried out with the DESeq2 package in DEBrowser (https://debrowser.umassmed.edu/). In each comparsion, genes were selected with an absolute fold-change >1.5 and alpha P<0.05. Pathway enrichment analysis was performed in g:Profiler (https://biit.cs.ut.ee/gprofiler/) using separate FDR ranked differentially expressed gene lists for up and down regulated genes with a Benjamini-Hochberg FDR correction for multiple testing and a FDR<0.05 threshold. Enriched pathways of GO Biologic Processes were visualized in Cytoscape (http://www.cytoscape.org/) using EnrichmentMap (http://www.baderlab.org/Software/EnrichmentMap) and a FDR cutoff of 0.01. Similarity statistic threshold was set at Jaccard>0.25 and filtered for gene set sizes between 5 and 500 genes.

[4] = test system: avian pathogenic E. coli; details: prophylactic in ovo injection of chicken embryos; cited from earlier work
[5] = test system: Salmonella enterica; details: injected into the yolk of zebrafish embryos, intravenous infection; cited from earlier work
[6] = 5 μM, 24 h priming, 3 days rest
[7] = after 24 h E. coli LPS stimulation
[8] = DCATH-2 training, during LPS stimulation
[9] = RNAseq experiment, 24 h priming, 3 days rest, 6 h E. coli LPS stimulation
[10] = trained LPS-stimulated cells vs LPS-stimulated control cells
[11] = trained and rested cells vs unstimulated control cells

Substance: rfgrflrkirrfrpkvtitiqgsarf-NH2 ([dR][dF]G[dR][dF][dL][dR][dK][dI][dR][dR][dF][dR][dP][dK][dV][dT][dI][dT][dI][dQ]G[dS][dA][dR][dF]-NH2; N-terminus assumed; SMILES CC[C@@H](C)[C@@H](NC(=O)[C@@H](CCCCN)NC(=O)[C@@H](CCCNC(=N)N)NC(=O)[C@@H](CC(C)C)NC(=O)[C@@H](Cc1ccccc1)NC(=O)[C@@H](CCCNC(=N)N)NC(=O)CNC(=O)[C@@H](Cc1ccccc1)NC(=O)[C@H](N)CCCNC(=N)N)C(=O)N[C@H](CCCNC(=N)N)C(=O)N[C@H](CCCNC(=N)N)C(=O)N[C@H](Cc1ccccc1)C(=O)N[C@H](CCCNC(=N)N)C(=O)N1CCC[C@@H]1C(=O)N[C@H](CCCCN)C(=O)N[C@@H](C(=O)N[C@@H](C(=O)N[C@@H](C(=O)N[C@@H](C(=O)N[C@@H](C(=O)N[C@H](CCC(N)=O)C(=O)NCC(=O)N[C@H](CO)C(=O)N[C@H](C)C(=O)N[C@H](CCCNC(=N)N)C(=O)N[C@H](Cc1ccccc1)C(N)=O)[C@H](C)CC)[C@H](C)O)[C@H](C)CC)[C@H](C)O)C(C)C) [DCATH-2, full D-amino acid analog of CATH-2]
- inhibition of outgrowth of Salmonella enteritidis vs non-primed dTHP-1 cells [1]: 78±11%
- TCA cycle and urea cycle [2, 6]: not significantly affected
- de novo pyrimidine synthesis [2, 6]: increased
- glycolysis (metabolic intermediates) [2, 6]: increased
- intracellular glucose concentrations [2, 6]: lower
- intracellular lactate levels [2, 6]: higher
- lactate secretion into the medium [2, 6]: augmented
- levels of intracellular medium-chain and long-chain acylcarnitines [2, 6]: dramatically increased
- usage of amino acids [2, 6]: overall enhanced usage
- TCA cycle, urea cycle or amino acid metabolism ([2]; LPS stimulation of trained cells): did not affect
- intracellular levels of medium-chain and long-chain acylcarnitines [2, 7]: remained elevated
- training induced metabolic shift during LPS stimulation [2, 7]: maintained
- Log 2 fold change, gene AHNAK2 [3, 8]: 1.12
- Log 2 fold change, gene CCL18 [3, 8]: 2.81
- Log 2 fold change, gene CCRL2 [3, 8]: 1.04
- Log 2 fold change, gene CD22 [3, 8]: 1.18
- Log 2 fold change, gene CSF2 [3, 8]: 1.81
- Log 2 fold change, gene CXCL3 [3, 8]: 1.18
- Log 2 fold change, gene FAM213B [3, 8]: 1.02
- Log 2 fold change, gene FOXF1 [3, 8]: 1.21
- Log 2 fold change, gene HSPBAP1 [3, 8]: 1.06
- Log 2 fold change, gene IL1A [3, 8]: 1.15
- Log 2 fold change, gene IL6 [3, 8]: 2.17
- Log 2 fold change, gene KLF2 [3, 8]: 2.54
- Log 2 fold change, gene LIF [3, 8]: 2.73
- Log 2 fold change, gene MFSD2A [3, 8]: 1.04
- Log 2 fold change, gene MYLK [3, 8]: 1.17
- Log 2 fold change, gene PTGS2 [3, 8]: 1.29
- Log 2 fold change, gene SEPT3 [3, 8]: 1.06
- Log 2 fold change, gene TIE1 [3, 8]: 1.46
- Log 2 fold change, gene TNFSF15 [3, 8]: 1.19
- Log 2 fold change, gene TRIM47 [3, 8]: 2.45
- Log 2 fold change, gene TRPM8 [3, 8]: 1.36
- Log 2 fold change, gene ZNF358 [3, 8]: 1.04
- amplification of IL-6 production [3, 9]: 3.3 fold
- amplification of TNFα production [3, 9]: 2.5 fold
- downregulated DEGs [3, 10]: 54
- upregulated DEGs [3, 10]: 71
- downregulated DEGs [3, 11]: 126
- upregulated DEGs [3, 11]: 156
- colibacilossis-associated mortality and morbidity [4]: considerably reduced
- mortality after lethal dose of Salmonella enterica [5]: delayed mortality
